From patent US20250109127A1, “METHODS OF USE OF PHENOXYPROPYLAMINE COMPOUNDS TO TREAT DEPRESSION” (Minerva Neurosciences, Inc., priority 2013, published 2025)
Entries after “also recorded” stand apart in the source; their conditions may differ.

Tests used:
[1] = Pharmacokinetic study, plasma concentration on day 1 and day 14; type: in vivo; conditions: day 1 and day 14 after dosing with SON-117
From the text: were examined in pharmacokinetic studies.
FIG. 34 illustrates the plasma concentration of SON-117 as a function of time on day 1 after dosing with SON-117. FIG. 35 illustrates the plasma concentration of SON-117 as a function of time on day 14 after dosing with SON˜117.
FIG. 36 illustrates the plasma concentration of the M1 metabolite of SON-117 as a function of time on day 1 after dosing with SON-117. FIG. 37 illustrates the plasma concentration of the M1 metabolite of SON-117 as a function of time on day 14 after dosing with SON-117.

sleep EEG parameters = assay: Polysomnography / sleep EEG study; type: in vivo, human; conditions: escitalopram 20 mg
Experimental: In this study, certain pharmacodynamic sleep parameters predictive of antidepressant activity were monitored and measured. […] Three doses of SON-117 were tested (1 mg, 3 mg, 7.5 mg). […] In an embodiment, SON-117 affected sleep. In an embodiment, SON-117 affected REM sleep.
[…] subjects were tested in a sleep study, where 23 subjects were dosed with SON-117 in amounts of 1 mg up to 7.5 mg; 12 were given a placebo; and 8 were given escitalopram at a dose of 20 mg. Sleep was recorded in individual sound-attenuated and comfortably furnished bedrooms. During bedtime hours subjects were recumbent and the lights are turned off. The polysomnographic montage consisted of 4 EEG channels (C3A2, O1A2, C4A1, and O2A1), bilateral electro-oculograms, and 2 submental electromyograms. The different sleep parameters were derived with the Hypnos software from the visual scoring of the recordings at 30 sec epochs according to Rechtschaffen and Kales (1968) rules. Sleep continuity parameters comprise both sleep initiation and sleep maintenance variables. Sleep architecture parameters, which include REM sleep parameters, comprise stages distribution variables documenting duration and proportion of the different sleep stages and sleep profile variables that provide an outline on the time course of the different sleep stages during the recording period. All night sleep EEG spectral analysis was carried out on the C3-A2 derivation by means a fast Fourrier transform algorithm. Epoch length was 2 seconds at a sampling rate of 256 Hz and truncating error was reduced by applying a Hanning window. Sleep visual scores of each 30-second epoch was synchronised with power density values in order to allow the analysis of power density within in specific period of time such as REM and non REM sleep.

[2] = system: animals exposed to chronic mild stress; assay: Chronic mild stress (CMS) model, consumption of 1% sucrose solution; type: in vivo, rat
Experimental: Male Wistar rats (Charles River, Germany) were brought into the laboratory one month before the start of the experiment. Except as described below, the animals were singly housed with food and water freely available, and were maintained on a 12-h light/dark cycle, in a constant temperature (22±2° C.) and humidity (50±5%) conditions.
After a period of 2 weeks of adaptation to laboratory and housing conditions, the animals were first trained to consume a 1% sucrose solution; training consisted of nine 1 h baseline tests in which sucrose was presented, in the home cage, following 14 h food and water deprivation; the sucrose intake was measured by weighing pre-weighed bottles containing the sucrose solution, at the end of the test. Subsequently, the sucrose consumption was monitored, under similar conditions, at weekly intervals throughout the whole experiment.
On the basis of their sucrose intakes in the final baseline test, the animals were divided into two matched groups. One group of animals was subjected to the chronic mild stress procedure for a period of 8 consecutive weeks. Each week of stress regime consisted of: two periods of food or water deprivation, two periods of 45 degree cage tilt, two periods of intermittent illumination (lights on and off every 2 h), two periods of soiled cage (250 ml water in sawdust bedding), one period of paired housing, two periods of low intensity stroboscopic illumination (150 flashes/min), and three periods of no stress. All stressors were 10-14 h of duration and were applied individually and continuously, day and night. Control animals were housed in separate rooms and had no contact with the stressed animals. They were deprived of food and water for the 14 h preceding each sucrose test, but otherwise food and water were freely available in the home cage.
On the basis of their sucrose intakes following initial 2 weeks of stress, both the stressed and the control groups were each divided further into matched subgroups (n=8), and for subsequent five weeks they received once daily intraperitoneal injections of vehicle (0.5% hydroxypropylmethylcellulose, 1 ml/kg), SON-117 (0.001, 0.01, 0.1 and 1 mg/kg) or imipramine (10 mg/kg) as the reference treatment. The drugs were administered at approx. 10:00 AM and the weekly sucrose tests were carried out 24 h following the last drug injections. After five weeks all treatments were terminated and one additional sucrose test was carried out after one week of withdrawal. Stress was continued throughout the period of treatment and withdrawal.
(§1) After completion of the administration and withdrawal period, all control and stressed animals were placed in an open field (100 cm in diameter, 35 cm high) and allowed to explore two identical objects (cylinder-shaped object with walls painted white, 7 cm in diameter, 11 cm high) for the time required to complete 15 s of exploration of either object. For the retention trial conducted one hour later, one of the objects presented previously was replaced with a novel object (prism-shaped object with walls painted black, 5 cm wide, 14 cm high). Rats were returned to the open field for 5 min and the duration of exploration (i.e. sitting in close proximity to the objects, sniffing or touching them) of each object was measured separately by a trained observer. The data were calculated according to the following formula: [time of novel object exploration divided by time of novel plus familiar object exploration multiplied by 100]. The CMS and NOR data were analyzed by multiple analyses of variance with three between-subjects factors (stress/control, drug treatments and intakes in successive sucrose tests). The Fisher's LSD test was used for the post-hoc comparisons of means.

[3] = system: animals exposed to chronic mild stress; assay: Novel object recognition test after CMS and treatment withdrawal; type: in vivo, rat; conditions: imipramine 10 mg/kg IP, one week after withdrawal
From the text: as §1

[4] = system: dopamine release in the rat prefrontal cortex; assay: Microdialysis: dopamine release in prefrontal cortex after I.P. administration; type: in vivo; conditions: 3 mg/kg IP, n = 8
Experimental: The aim of the study was to evaluate, using microdialysis, the effects of an intraperitoneal (I.P.) administration in rats of three different doses of SON-117 on dopamine and its metabolites, serotonin and its metabolite (5-HIAA), and norepinephrine levels in prefrontal cortex.
Thirty-two adult male Wistar rats were used for the whole study (4 groups of eight animals planned for the study, Table 1).
Surgery was performed on rats weighing about 300 g at the beginning of the experiments. Rats were anaesthetized with Ketamine (50 mg/kg) & Xylazine (15 mg/kg) by intramuscular administration. The animals were placed in a stereotaxic apparatus in the flat-skull position at a constant setting of −3.3 mm between ear bars and the incisor bar. The animals were treated with a local anesthesic (xylocaine 1%, Astra Zeneca) and an analgesic (Temgesic, from Schering Plough, 0.05 mg/kg, s.c.). A rostrocaudal midline incision was made with a lancet to expose the dorsal skull surface. The “stereotaxic zero” was defined by the Bregma in accordance with Paxinos and Watson's atlas (1986). A hole was drilled in the skull with a drill and the meninges were pierced with a sterile needle to implant a CMA12 guide cannula which later received the dialysis probe.
Coordinates used for implanting guide cannula in prefrontal cortex from Bregma were anteroposterior 3.7 mm, mediolateral 0.8 mm, and dorsoventral −2 mm (top of the probe was at −5 mm). The guide cannula was fixed to the skull with two stainless steel screws (1.88 mm outside diameter) anchored. An application of dental cement was added. A plastic collar allowed each animal to be tethered to a Swivel assembly of the CMA 120 awake animal system. Following surgery, rats were kept in individual cages and allowed to recover for a minimum of 3-5 days before the experimentation. The rats were handled and put in plastic bowl for 10 min at least every day to habituate the animals to their new environment for the dialysis. An I.P. administration with saline was also performed every day.
Dialysis probes (CMA12/3 mm, membrane, 20 kD cut-off, Carnegie Medicine, Stockholm, Sweden), were carefully washed before inserting into the guide cannula. The wash was performed with the artificial cerebrospinal fluid (aCSF) medium (NaCl 147 mM, KCl 2.7 mM, CaCl2 1.2 mM, MgCl2 0.85 mM) at room temperature. The dialysis system was then equilibrated at 20° C. at a perfusion rate of 1 μl/min with a Carnegie pump (CMA100). All catheters (FEP tubing, internal volume of 1.2 μl/10 cm, and tubing adaptors) used for microdialysis were treated in the same conditions.
The probes duly prepared were inserted into the guide cannula and the CMA120 Swivel assembly secured to the animal using a plastic collar. Flow through the dialysis probe with aCSF was maintained at a rate of 1 μl/min during the whole experimentation. The first four fractions (corresponding to 2 hours) were discarded to avoid the effects of parenchymal disturbance and to ensure that an approximate steady-state level was reached. Fractions were then collected over a period of 8.5 h during which time the animals remained quiet. The dialysates were automatically collected with an autosampler (microfraction collector CMA 140, Carnegie Medicin) and stored at −80° C. until analysis. […] Perfusion was then maintained for 7 hours with aCSF. The dialysates (30 μl) were collected into 300 μl vials, transferred into dry ice and then kept frozen (−80° C.) until analysis. Frozen samples were shipped to a partner for analysis. At the end of the microdialysis study, a PBS with colored ink was perfused through the probe in order to visualize the dialyzed area.
Catecholamine assay: Concentrations of dopamine, DOPAC, HVA, 5-HIAA, 5-HT, and norepinephrin were determined for each sample by HPLC coupled with electrochemical detection.

OCc1nnc(-c2cc3c(OC[C@@H](O)CN4CCC(c5ccc(Cl)c(Cl)c5)CC4)cccc3o2)o1 [M1]
AUC, dependence on dose [1]: dose-proportional increase
Cmax, dependence on dose [1]: dose-proportional increase

CN(C)CCC[C@@]1(c2ccc(F)cc2)OCc2cc(C#N)ccc21 [escitalopram, reference compound]
pharmacodynamic sleep parameters, positive comparator (sleep EEG parameters): behaved as expected

CN(C)CCCN1c2ccccc2CCc2ccccc21 [imipramine, reference compound]
treatment time until increase in sucrose intake in stressed animals reached statistical significance vs Week 0 ([2]; imipramine 10 mg/kg IP): four
effect on sucrose intake one week after cessation of treatment ([2]; imipramine 10 mg/kg IP, stressed animals): maintained
sucrose intake in control animals, compared to vehicle ([2]; once daily IP for five weeks, imipramine 10 mg/kg, SON-117 all doses (0.001, 0.01, 0.1 and 1 mg/kg)): no significant effect
sucrose consumption in stressed animals, compared to vehicle ([2]; once daily IP for five weeks, imipramine 10 mg/kg, SON-117 all four doses (0.001-1 mg/kg)): gradually increased; also recorded: fully reversed
recognition index in control animals [3]: decreased
effect against the CMS-induced deficit in recognition index ([3]; stressed animals): ineffective

Cc1nnc(-c2cc3c(OC[C@@H](O)CN4CCC(c5ccc(Cl)c(Cl)c5)CC4)cccc3o2)o1.Cl [SON117]
Dopamine release, MEAN ([4]; T0-T30 min): 129.47 % of respective basal
Dopamine release, MEAN ([4]; T30-T1 h): 110.54 % of respective basal
Dopamine release, MEAN ([4]; T1 h 30-T2 h): 134.25 % of respective basal
Dopamine release, MEAN ([4]; T1 h-T1 h 30): 169.31 % of respective basal
Dopamine release, MEAN ([4]; T2 h 30-T3 h): 115.17 % of respective basal
Dopamine release, MEAN ([4]; T2 h-T2 h 30): 106.18 % of respective basal
Dopamine release, MEAN ([4]; T3 h 30-T4 h): 113.02 % of respective basal
Dopamine release, MEAN ([4]; T3 h-T3 h 30): 117.50 % of respective basal
Dopamine release, MEAN ([4]; T4 h 30-T5 h): 111.42 % of respective basal
Dopamine release, MEAN ([4]; T4 h-T4 h 30): 126.77 % of respective basal
Dopamine release, MEAN ([4]; T5 h 30-T6 h): 148.15 % of respective basal
Dopamine release, MEAN ([4]; T5 h-T5 h 30): 123.35 % of respective basal
Dopamine release, MEAN ([4]; T6 h 30-T7 h): 167.43 % of respective basal
Dopamine release, MEAN ([4]; T6 h-T6 h 30): 131.63 % of respective basal
Dopamine release, MEAN ([4]; T-30 min-T0 (before administration)): 96.15 % of respective basal
Dopamine release, MEAN ([4]; T-1 h 30-T-1 h (before administration)): 104.41 % of respective basal
Dopamine release, MEAN ([4]; T-1 h-T-30 min (before administration)): 99.29 % of respective basal
